Experimental data as given in ChEMBL document CHEMBL1127257, “Ca2+-ATPase inhibitory activity of a locked analogue of thapsigargin” (Bioorg Med Chem Lett, 1994).

Species on record: Bos taurus
Test: Inhibitory effect by measuring the ATP-dependent [Ca2+] uptake in membranes isolated from bovine cerebellum
Assay type: functional

C/C=C(\C)C(=O)O[C@H]1C(C)=C2[C@H]([C@@H]1OC(=O)CCCCCCC)[C@@](C)(OC(C)=O)C[C@H](OC(=O)CCC)[C@@]1(O)[C@H]2OC[C@@]1(C)O
IC50 (Bos taurus, Cerebellum): 0.18 nM

CC=C(C)C(=O)O[C@H]1C(C)=C2[C@H]([C@@H]1OC(=O)CCCCCCC)[C@@](C)(OC(C)=O)C[C@H](OC(=O)CCC)[C@@]1(O)[C@H]2OC(=O)[C@@]1(C)O [THAPSIGARGIN]
IC50 (Bos taurus, Cerebellum): 0.264 nM

C/C=C(/C)C(=O)O[C@H]1C(C)=C2[C@H]([C@@H]1OC(=O)CCCCCCC)[C@@](C)(OC(C)=O)C[C@H](OC(=O)CCC)[C@@]1(O)[C@H]2OC(=O)[C@@]1(C)O [THAPSIGARGIN]
IC50: 0.17 nM
